Where two headings read alike, the source gives them in different places.
Tests used:
Assay type in all cases: cell-based
HIV-1 M tropic strains = assay: M-tropic laboratory strains, extracellular p24 antigen in PM1 cells
Procedure: (§1) Virus yields were measured in dose-response experiments by either luciferase activity in human T-cells (CEM-NKR-CCR5-Luc), extracellular reverse transcriptase activity in MT-2 cells (T-tropic viruses), or extracellular p24 antigen in PM1 cells (M-tropic viruses).
(§2) Multiple-cycle assays using recombinant viruses or clinical isolates were used to assess MI antiviral activity as described previously ([10]). pNLRepRlucP373S (the P373S change is in the Gag gene and converts an outlier polymorphism in the NL4-3 gene to the prevalent amino acid in the population) plasmids containing SDMs in Gag or gag/pr regions from clinical isolates were transfected into HEK 293T cells, and the supernatant containing recombinant virus was harvested after 4 to 5 days. Virus was used to infect MT-2 cells in the presence of a 3-fold serially diluted compound at a final dimethyl sulfoxide (DMSO) concentration of 1%. The inocula of the reporter viruses were determined based on the luciferase activity detected on day 4 postinfection. The MOI (ratio of infectious virions to target cells) of reporter-free laboratory strains and clinical isolates was 0.005, as derived from a tissue culture infectious dose study. Clinical isolates or reporter-free viruses were examined in the reporter CEM-NKR-CCR5-Luc cells or PBMCs at MOIs ranging from 0.005 to 0.01. Each infection started with a drug-free preincubation of the cell-virus mixtures, performed at 37°C and 5% CO2 for either 1 h at 2 times the final cell density (reporter viruses) or 1 h (reporter-free laboratory strains) or 3 h (clinical isolates) using cell pellets in 0.5 mL of medium. […] Virus growth was determined on days 4 to 5 postinfection for reporter variants or days 5 to 11 for the other viruses. The reporter viruses were detected by a luciferase assay according to manufacturer protocols (Brite-Glo luciferase kit [Promega] for CEM-NKR-CCR5-Luc cells and Dual-Luciferase Reporter 1000 assay system [Promega] for the other cells), and luminescence was detected on a Wallac Trilux. The growth of clinical isolates in PBMCs was quantitated by reverse transcriptase activity in a 96-well scintillation proximity assay (SPA). […] Luminescence was detected on a Wallac Trilux programmed for tritium counting with SPA beads in opaque plates. The growth of the reporter-free laboratory M-tropic strains and clinical isolates was monitored by a p24 enzyme-linked immunosorbent assay (ELISA; PerkinElmer Life Sciences, Waltham, MA) performed on culture supernatants.
(§3) Maximal percent inhibition values were calculated as MPI = 100 – (mean signals at the 2 highest concentrations of compound/mean signal of 2 no-drug control wells) × 100.

[1] = tested on: HIV-1 viruses containing Gag region SDMs; assay: Single-cycle infection assay with Gag SDM viruses
Procedure: Single-cycle infection assays were performed as described previously ([10]). Half-maximal effective concentration values were calculated as the compound concentration that inhibits 50% of the maximal signal (no-drug control), correcting for background. Background was determined as the residual signal observed upon inhibition at the highest concentration of a control protease inhibitor, nelfinavir (3 μM). Half-maximal fold change effective concentration versus WT values were calculated by dividing the EC50 of the recombinant virus by the EC50 of WT RepRlucNL4-3 virus run in parallel.

HIV-2 strains = assay: HIV-2 strains, luciferase activity in CEM-NKR-CCR5-Luc cells
Procedure: as §1
as §2, with “postinfection.” for “postinfection. The MOI (ratio of infectious virions to target cells) of reporter-free laboratory strains and clinical isolates was 0.005, as derived from a tissue culture infectious dose study. Clinical isolates or reporter-free viruses were examined in the reporter CEM-NKR-CCR5-Luc cells or PBMCs at MOIs ranging from 0.005 to 0.01. Each infection started with a drug-free preincubation of the cell-virus mixtures, performed at 37°C and 5% CO2 for either 1 h at 2 times the final cell density (reporter viruses) or 1 h (reporter-free laboratory strains) or 3 h (clinical isolates) using cell pellets in 0.5 mL of medium.”
as §3

[2] = Human immunodeficiency virus 1, PM1, Bal
[3] = Human immunodeficiency virus 1, PM1, JRFL
[4] = Human immunodeficiency virus 1, read-out: Mean ± SD EC50, A364V
[5] = Human immunodeficiency virus 1, read-out: Mean ± SD EC50, A366V
[6] = Human immunodeficiency virus 1, read-out: Mean ± SD EC50, A366V/V370M
[7] = Human immunodeficiency virus 1, read-out: Mean ± SD EC50, H358Y/ΔT371
[8] = Human immunodeficiency virus 1, read-out: Mean ± SD EC50, I333V/V362I
[9] = Human immunodeficiency virus 1, read-out: Mean ± SD EC50, I333V/V370
[10] = Human immunodeficiency virus 1, read-out: Mean ± SD EC50, I333V/V370A
[11] = Human immunodeficiency virus 1, read-out: Mean ± SD EC50, M367V
[12] = Human immunodeficiency virus 1, read-out: Mean ± SD EC50, R361K/V362I/L363M
[13] = Human immunodeficiency virus 1, read-out: Mean ± SD EC50, T33N/V370A
[14] = Human immunodeficiency virus 1, read-out: Mean ± SD EC50, T332N/V370A
[15] = Human immunodeficiency virus 1, read-out: Mean ± SD EC50, T332S/V362I/prR41G
[16] = Human immunodeficiency virus 1, read-out: Mean ± SD EC50, V362I
[17] = Human immunodeficiency virus 1, read-out: Mean ± SD EC50, V362I/A366V
[18] = Human immunodeficiency virus 1, read-out: Mean ± SD EC50, V362I/A366V/V370M
[19] = Human immunodeficiency virus 1, read-out: Mean ± SD EC50, V362I/H219Q
[20] = Human immunodeficiency virus 1, read-out: Mean ± SD EC50, V362I/H219Q/T332S
[21] = Human immunodeficiency virus 1, read-out: Mean ± SD EC50, V362I/V370A
[22] = Human immunodeficiency virus 1, read-out: Mean ± SD EC50, V362I/V370M
[23] = Human immunodeficiency virus 1, read-out: Mean ± SD EC50, V370A
[24] = Human immunodeficiency virus 1, read-out: Mean ± SD EC50, V370M
[25] = Human immunodeficiency virus 1, read-out: Mean ± SD EC50, Wild type
[26] = Human immunodeficiency virus 1, read-out: Mean ± SD EC50, ΔV370
[27] = Human immunodeficiency virus 2, HIV-2 ROD, first value in cell

`C=C(C)[C@@H]1CC[C@]2(NCCN3CCS(=O)(=O)CC3)CC[C@]3(C)[C@H](CC[C@@H]4[C@@]5(C)CC=C(C6=CC[C@@](CF)(C(=O)O)CC6)C(C)(C)[C@@H]5CC[C@]43C)[C@@H]12` [GSK’254] showed an EC50 (HIV-1 M tropic strains; [2]) of 1.1 nM, an EC50 (HIV-1 M tropic strains; [3]) of 1.2 nM and an MPI ([1]; A364V) of 45%. It also gave an MPI ([1]; A366V) of −7.6%, an MPI ([1]; A366V/V370M) of 26% and an MPI ([1]; H358Y/ΔT371) of 67%. It also gave an EC50 ([1]; Human immunodeficiency virus 1, V362I/V370A) of 4 nM, an EC50 [1, 4] of over 3000 nM and an EC50 [1, 5] of over 3000 nM. It also gave an EC50 [1, 6] of over 3000 nM, an EC50 [1, 7] of 35 ± 2 nM and an EC50 [1, 8] of 39 ± 5 nM. It also gave an EC50 [1, 9] of 11 ± 1 nM, an EC50 [1, 10] of 11 ± 1 nM and an EC50 [1, 11] of 15 ± 10 nM. For the same compound, the EC50 [1, 12] was 14 ± 2 nM, the EC50 [1, 13] was 3 nM and the EC50 [1, 14] was 4 ± 1 nM. The EC50 [1, 15] was 13 ± 9 nM, the EC50 [1, 16] was 3 ± 1 nM and the EC50 [1, 17] was over 3000 nM. It also gave an EC50 [1, 18] of over 3000 nM, an EC50 [1, 19] of 7 ± 2 nM and an EC50 [1, 20] of 8 ± 3 nM. The EC50 [1, 21] was 4 ± 1 nM, the EC50 [1, 22] was 4 ± 2 nM and the EC50 [1, 23] was 2 ± 1 nM. For the same compound, the EC50 [1, 24] was 2 ± 1 nM, the EC50 [1, 25] was 3 ± 2 nM and the EC50 [1, 26] was 8 nM. The MPI ([1]; I333V/V362I) was 65%, the MPI ([1]; I333V/V370) was 86% and the MPI ([1]; I333V/V370A) was 86%. For the same compound, the MPI ([1]; M367V) was 89%, the MPI ([1]; R361K/V362I/L363M) was 89% and the MPI ([1]; T33N/V370A) was 94%. The MPI ([1]; T332N/V370A) was 94%, the MPI ([1]; T332S/V362I/prR41G) was 88% and the MPI ([1]; V362I) was 89%. For the same compound, the MPI ([1]; V362I/A366V) was −96%, the MPI ([1]; V362I/A366V/V370M) was 1% and the MPI ([1]; V362I/H219Q) was 91%. It also gave an MPI ([1]; V362I/H219Q/T332S) of 91%, an MPI ([1]; V362I/V370A) of 91% and an MPI ([1]; V362I/V370M) of 90%. For the same compound, the MPI ([1]; V370A) was 97%, the MPI ([1]; V370M) was 93% and the MPI ([1]; Wild type) was 98%. The MPI ([1]; ΔV370) was 96%, the EC50 (HIV-2 strains; Human immunodeficiency virus 2, HIV-2 287) was 1240 nM and the EC50 (HIV-2 strains; [27]) was over 3000 nM.

For `C=C(C)[C@@H]1CC[C@]2(NCCN3CCS(=O)(=O)CC3)CC[C@]3(C)[C@H](CC[C@@H]4[C@@]5(C)CC=C(c6ccc(C(=O)O)cc6)C(C)(C)[C@@H]5CC[C@]43C)[C@@H]12` [GSK’795, reference compound], the EC50 (HIV-1 M tropic strains; [2]) was 3.7 nM, the EC50 (HIV-1 M tropic strains; [3]) was 13 nM and the MPI ([1]; A364V) was 8%. It also gave an MPI ([1]; A366V) of 3%, an MPI ([1]; A366V/V370M) of 3% and an MPI ([1]; H358Y/ΔT371) of 18%. The EC50 [1, 4] was over 3000 nM, the EC50 [1, 5] was over 3000 nM and the EC50 [1, 6] was over 3000 nM. It also gave an EC50 [1, 7] of over 3000 nM, an EC50 [1, 8] of over 3000 nM and an EC50 [1, 9] of over 3000 nM. The EC50 [1, 10] was over 3000 nM, the EC50 [1, 11] was over 3000 nM and the EC50 [1, 12] was over 3000 nM. The EC50 [1, 13] was 30 nM, the EC50 [1, 14] was 30 nM and the EC50 [1, 15] was over 3000 nM. The EC50 [1, 16] was 14 ± 6 nM, the EC50 [1, 17] was over 3000 nM and the EC50 [1, 18] was over 3000 nM. The EC50 [1, 19] was 66 nM, the EC50 [1, 20] was 710 nM and the EC50 [1, 21] was over 3000 nM. For the same compound, the EC50 [1, 22] was over 3000 nM, the EC50 [1, 23] was 6 nM and the EC50 [1, 24] was 13 ± 11 nM. For the same compound, the EC50 [1, 25] was 5 ± 3 nM, the EC50 [1, 26] was 110 nM and the MPI ([1]; I333V/V362I) was −30%. For the same compound, the MPI ([1]; I333V/V370) was −36%, the MPI ([1]; I333V/V370A) was 10% and the MPI ([1]; M367V) was 36%. The MPI ([1]; R361K/V362I/L363M) was 36%, the MPI ([1]; T33N/V370A) was 70% and the MPI ([1]; T332N/V370A) was 70%. It also gave an MPI ([1]; T332S/V362I/prR41G) of −30%, an MPI ([1]; V362I) of 68% and an MPI ([1]; V362I/A366V) of −109%. The MPI ([1]; V362I/A366V/V370M) was −62%, the MPI ([1]; V362I/H219Q) was 60% and the MPI ([1]; V362I/H219Q/T332S) was 52%. It also gave an MPI ([1]; V362I/V370A) of 31%, an MPI ([1]; V362I/V370M) of 51% and an MPI ([1]; V370A) of 84%. It also gave an MPI ([1]; V370M) of 78%, an MPI ([1]; Wild type) of 94% and an MPI ([1]; ΔV370) of 60%. For the same compound, the EC50 (HIV-2 strains; [27]) was over 3000 nM.
